Assays:
[1] = (−)-Epicatechin isomerisation test (heating of an epicatechin test solution, HPLC); assay type: physicochemical; conditions: for Epicatechin / Epicatechin % remain: 0.688 mg/ml epicatechin solution, nitrogen-flushed sealed vial; for Other % of start / Other: calculated from 100 − (epicatechin + catechin); for Other: unit assumed; for Catechin / Catechin % of start: formed from 0.688 mg/ml epicatechin
Experimental: In order to test the possibility that epicatechin was isomerising to catechin at higher temperatures, a test solution of 0.688 mg/ml epicatechin was produced and treated as follows: 950 μl of epicatechin was transferred to an auto sampler vial, which was flushed with nitrogen and sealed. The vial was then placed in an oven at a given temperature, for a set time period. The vial was then cooled, the seal removed and 50 μl of internal standard added before analysis. Tests were carried out at 50, 75, 100 and 125° C. for 15 and 30 minutes. Tests were not carried out at 150° C. as the vials are not capable of withstanding the pressure that would be generated.

[2] = Comparison of ethanol extraction with methanol (solubility of epicatechin); assay type: physicochemical; conditions: ethanol compared with methanol; implied by extraction data of Table 11
Experimental: A comparative extract using 1 g of apple powder and 10 ml methanol gave a figure of 4663 mg/Kg. In order to test if the low recovery figure above was due to low solubility of epicatechin in ethanol a series of tests were performed using 10, 20 and 30:1 w/w.

## epicatechin
[1]; 50° C. 15 min
  Epicatechin: 0.643 mg/mL
  Epicatechin % remain: 93.53%
  Other % of start: 5.40%
  Other: 0.037 mg/mL
  Catechin: 0.007 mg/mL
  Catechin % of start: 1.07%
[1]; 50° C. 30 min
  Epicatechin: 0.601 mg/mL
  Epicatechin % remain: 87.40%
  Other % of start: 10.79%
  Other: 0.074 mg/mL
  Catechin: 0.012 mg/mL
  Catechin % of start: 1.81%
[1]; 75° C. 15 min
  Epicatechin: 0.550 mg/mL
  Epicatechin % remain: 79.92%
  Other % of start: 10.59%
  Other: 0.073 mg/mL
  Catechin: 0.065 mg/mL
  Catechin % of start: 9.49%
[1]; 75° C. 30 min
  Epicatechin: 0.441 mg/mL
  Epicatechin % remain: 64.07%
  Other % of start: 19.65%
  Other: 0.135 mg/mL
  Catechin: 0.112 mg/mL
  Catechin % of start: 16.28%
[1]; 100° C. 15 min
  Epicatechin: 0.254 mg/mL
  Epicatechin % remain: 36.97%
  Other % of start: 16.36%
  Other: 0.113 mg/mL
  Catechin: 0.321 mg/mL
  Catechin % of start: 46.68%
[1]; 100° C. 30 min
  Epicatechin: 0.164 mg/mL
  Epicatechin % remain: 23.88%
  Other % of start: 26.07%
  Other: 0.179 mg/mL
  Catechin: 0.344 mg/mL
  Catechin % of start: 50.05%
[1]; 125° C. 15 min
  Epicatechin: 0.156 mg/mL
  Epicatechin % remain: 22.71%
  Other % of start: 27.94%
  Other: 0.192 mg/mL
  Catechin: 0.340 mg/mL
  Catechin % of start: 49.36%
[1]; 125° C. 30 min
  Epicatechin: 0.139 mg/mL
  Epicatechin % remain: 20.27%
  Other % of start: 36.13%
  Other: 0.249 mg/mL
  Catechin: 0.300 mg/mL
  Catechin % of start: 43.60%
[1]; temperatures above 100° C.
  isomerisation of (−)-epicatechin: rapid isomerisation
[2]
  solubility of epicatechin: lower solubility in ethanol than in methanol

Source: patent publication US8470380B2, “Polyphenol extraction process” (Coressence Limited, priority 2006, dated 2013)
